Laboratory results reported in US5686486A, “4-hydroxy-benzopyran-2-ones and 4-hydroxy-cycloalkyl[b]pyran-2-ones useful to treat retroviral infections” (priority 1995, dated 1997).
“And” between values parts separate entries of the source, which are not always exact repeats. Equal values may be shown once.

Columns and labels:
HIV-1 protease [1] = biological target: T1, HIV-1 protease (Human immunodeficiency virus type 1 group M subtype B, UniProt P04585); assay: biochemical; conditions: read-out: HIV-1 FITC KI
Procedure, shortened: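 Ki from two-fold serial inhibitor dilutions (24–48 concentrations) with 40 nM HIV-1 protease stock and 200 μM substrate stock, 90 min at room temperature; stopped with avidin beads. Reference inhibitor run in parallel; Ki by nonlinear least-squares fit.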

HIV-1 protease [2] = biological target: T1, HIV-1 protease; assay: biochemical; conditions: for inhibition at 0.123 µM: read-out: HIV-1 Protease % Inhib, dose 0.123 uM; for inhibition at 0.37 µM: read-out: HIV-1 Protease % Inhib, dose 0.370 uM; for inhibition at 1.1 µM: read-out: HIV-1 Protease % Inhib, dose 1.100 uM; for inhibition at 3.3 µM: read-out: HIV-1 Protease % Inhib, dose 3.300 uM; for inhibition at 10 µM: read-out: HIV-1 Protease % Inhib, dose 10.000 uM; for inhibition at 30 µM: read-out: HIV-1 Protease % Inhib, dose 30.000 uM
Procedure, shortened: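 Biotinylated, FITC-labeled peptide substrate (20 μl of 0.2 μM) incubated with HIV-1 protease (10 μl of 0.1 μM) and compound in 0.1 M sodium acetate pH 5.5, 1.0 M NaCl, 0.05% NP-40, 1 h, room temperature, dark. Streptavidin beads then capture uncleaved substrate; filtered labeled product read by fluorescence, giving percent inhibition.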

SMILES | Ki (HIV-1 protease [1]) | inhibition at 0.123 µM (HIV-1 protease [2]) [%] | inhibition at 0.37 µM (HIV-1 protease [2]) [%] | inhibition at 1.1 µM (HIV-1 protease [2]) [%] | inhibition at 3.3 µM (HIV-1 protease [2]) [%] | inhibition at 10 µM (HIV-1 protease [2]) [%] | inhibition at 30 µM (HIV-1 protease [2]) [%] | HIV-1 Protease % Inhib (HIV-1 protease [2]; dose 0.123 uM) [%] | HIV-1 Protease % Inhib (HIV-1 protease [2]; dose 0.370 uM) [%] | HIV-1 Protease % Inhib (HIV-1 protease [2]; dose 1.100 uM) [%] | HIV-1 Protease % Inhib (HIV-1 protease [2]; dose 3.300 uM) [%] | HIV-1 Protease % Inhib (HIV-1 protease [2]; dose 10.000 uM) [%] | HIV-1 Protease % Inhib (HIV-1 protease [2]; dose 30.000 uM) [%]
CC(C)(C)OC(=O)NCCC(=O)Nc1cccc(C(c2c(O)c3c(oc2=O)CCCCC3)C2CC2)c1 (centres unmarked) [Example 214, Carbamic acid. [3-[[3-[cyclopropyl(2,5,6,7,8,9-hexahydro-4-hydroxy-2-oxocyclohepta[b]pyran-3-yl)methyl]phenyl]amino]-3-oxopropyl]-, 1,1-dimethylethyl ester] | 0.0193 µM | 18.7 | 54 | 74.1 | 88.6 | 95.2 | 96.2 |  |  |  |  |  | 
O=C(CCn1ccc2ccccc21)Nc1cccc(C(c2c(O)c3c(oc2=O)CCCCC3)C2CC2)c1 (centres unmarked) [Example 215, 1H-Indole-1-propanamide, N-[3-[cyclopropyl(2,5,6,7,8,9-hexahydro-4-hydroxy-2-oxocyclohepta[b]pyran-3-yl)methyl]phenyl]-] | 0.0278 µM | 13.5 | 43.3 | 76.1 | 97.9 | 107 | 98.5 |  |  |  |  |  | 
CCC(c1cccc(NC(=O)CCNC(=O)OC(C)(C)C)c1)c1c(O)c2c(oc1=O)CCCCCC2 (centres unmarked) [Example 219, Carbamic acid, [3-[[3-[1-(5,6,7,8,9,10-hexahydro4-hydroxy-2-oxo-2H-cycloocta[b]pyran-3-yl)propyl]phenyl]amino]-3-oxopropyl]-, 1,1-dimethylethyl ester] | 0.0104 µM | 52.1 | 81 | 92.5 | 100 | 109 | 97.3 |  |  |  |  |  | 
CCOC(=O)Nc1cccc(C(c2c(O)c3c(oc2=O)CCCCCC3)C2CC2)c1 (centres unmarked) [Example 226, [3-[Cyclopropyl(5,6,7,8,9,10-hexahydro4-hydroxy-2-oxo-2H-cycloocta[b]pyran-3-yl)methyl]phenyl]-, ethyl ester carbamic acid] | 0.0189 µM | 14.2 | 43.7 | 74.1 | 87.6 | 101 | 104 |  |  |  |  |  | 
O=c1oc2c(c(O)c1[C@H](c1ccccc1)C1CC1)CCCCCC2 [Example 229, (-)-(S)-3-(Cyclopropylphenylmethyl)-5,6,7,8,9,10-hexahydro-4-hydroxy-2H-cyclo[b]pyran-2-one] | 0.0106 µM and 0.0119 µM and 0.0162 µM | 16.9 | 54.3 | 88.8 | 103 | 108 | 105 |  |  |  |  |  | 
O=c1oc2c(c(O)c1[C@H](c1cccc(NS(=O)(=O)c3ccc(F)cc3)c1)C1CC1)CCCCCC2 [Example 252, (-)-N-[3-[Cyclopropyl(5,6,7,8,9,10-hexahydro4-hydroxy-2-oxo-2H-cycloocta[b]pyran-3-yl)methyl]phenyl]-4-fluoro-benzenesulfonamide] | 0.0016 µM and 0.0011 µM | 100 | 108 | 111 | 112 | 116 | 109 |  |  |  |  |  | 
Cn1cnc(S(=O)(=O)Nc2cccc([C@@H](c3c(O)c4c(oc3=O)CCCCCC4)C3CC3)c2)c1 [Example 254, (-)-N-[3-[Cyclopropyl(5,6,7,8,9,10-hexahydro-4-hydroxy-2-oxo-2H-cycloocta[b]pyran-3-yl)methyl]phenyl]-1-methyl-1H-imidazole-4-sulfonamide] | 0.00065 µM |  |  |  |  |  |  | 82.28 | 97.98 | 107.75 | 111.05 | 112.1 | 103.1
O=c1oc2c(c(O)c1[C@H](c1cccc(NS(=O)(=O)c3cccc4cccnc34)c1)C1CC1)CCCCCC2 [Example 256, (-)-N-[3-[Cyclopropyl(5,6,7,8,9,10-hexahydro-4-hydroxy-2-oxo-2H-cycloocta[b]pyran-3-yl)methyl]phenyl]-8-quinolinesulfonamide] | 0.00042 µM | 82.5 | 91.3 | 99 | 95 | 101 | 96.1 |  |  |  |  |  | 
O=c1oc2c(c(O)c1[C@@H](c1cccc(NS(=O)(=O)c3cccc4cccnc34)c1)C1CC1)CCCCCC2 [Example 260, (+)-N-[3-[Cyclopropyl(5,6,7,8,9, 10-hexahydro-4-hydroxy-2-oxo-2H-cycloocta[b]pyran-3-yl)methyl]phenyl]-8-quinolinesulfonamide] | 0.00093 µM | 73.8 | 91.7 | 99 | 106 | 102 | 96.9 |  |  |  |  |  | 
CC(C)(C)c1ccc(S(=O)(=O)Nc2cccc(C(c3c(O)c4c(oc3=O)CCCCCC4)C3CC3)c2)cc1 (centres unmarked) [Example 265, N-[3-[Cyclopropyl(5,6,7,8,9,10-hexahydro-4hydroxy-2-oxo-2H-cycloocta[b]pyran-3-yl)methyl]phenyl]-4-(1,1-dimethylethyl)-benzenesulfonamide] | 0.0315 µM | 25.3 | 54.8 | 76.9 | 86.1 | 100 | 98.3 |  |  |  |  |  | 
O=c1oc2c(c(O)c1C(c1cccc(NS(=O)(=O)c3ccc(Cl)c(Cl)c3)c1)C1CC1)CCCCCC2 (centres unmarked) [Example 269, 3,4-Dichloro-N-[3-[cyclopropyl(5,6,7,8,9,10-hexahydro-4-hydroxy-2-oxo-2H-cycloocta[b]pyran-3-yl)methyl]phenyl]-benzenesulfonamide] | 0.0053 µM and 0.0029 µM | 77.1 | 95.7 | 112 | 114 | 125 | 114 |  |  |  |  |  | 
O=c1oc2c(c(O)c1C(c1cccc(NS(=O)(=O)c3c(F)c(F)c(F)c(F)c3F)c1)C1CC1)CCCCCC2 (centres unmarked) [Example 278, N-[3-[Cyclopropyl(5,6,7,8,9,10-hexahydro-4-hydroxy-2-oxo-2H-cycloocta[b]pyran-3-yl)methyl]phenyl]-2,3,4,5,6-pentafluoro-benzenesulfonamide] | 0.0136 µM | 36.3 | 78.2 | 94.7 | 101 | 102 | 110 |  |  |  |  |  | 
O=c1oc2c(c(O)c1C(c1cccc(NS(=O)(=O)c3cccc(C(F)(F)F)c3)c1)C1CC1)CCCCCC2 (centres unmarked) [Example 280, N-[3-[Cyclopropyl(5,6,7,8,9,10-hexahydro-4-hydroxy-2-oxo-2H-cycloocta[b]pyran-3-yl)methyl]phenyl]-3-(trifluoromethyl)-benzenesulfonamide] | 0.003 µM | 69.8 | 95.1 | 101 | 110 | 110 | 114 |  |  |  |  |  | 
O=c1oc2c(c(O)c1C(c1cccc(NS(=O)(=O)c3ccccc3F)c1)C1CC1)CCCCCC2 (centres unmarked) [Example 281, N-[3-[Cyclopropyl(5,6,7,8,9,10-hexahydro-4-hydroxy-2-oxo-2H-cycloocta[b]pyran-3-yl)methyl]phenyl]-2-fluoro-benzenesulfonamide] | 0.0106 µM | 55.5 | 93.5 | 99.3 | 109 | 105 | 101 |  |  |  |  |  | 
O=c1oc2c(c(O)c1C(c1cccc(NS(=O)(=O)c3cc(Cl)cc(Cl)c3O)c1)C1CC1)CCCCCC2 (centres unmarked) [Example 284] | 0.0122 µM | 37.5 | 77 | 99.8 | 107 | 107 | 104 |  |  |  |  |  | 
O=c1oc2c(c(O)c1C(c1cccc(NS(=O)(=O)c3ccccc3C(F)(F)F)c1)C1CC1)CCCCCC2 (centres unmarked) [Example 286, N-[3-[Cyclopropyl(5,6,7,8,9,10-hexahydro4-hydroxy-2-oxo-2H-cycloocta[b]pyran-3-yl)methyl]phenyl]-2-(trifluoromethyl)-benzenesulfonamide] | 0.0214 µM | 30 | 62.4 | 83.3 | 92.3 | 97.4 | 93.7 |  |  |  |  |  | 
O=c1oc2c(c(O)c1C(c1cccc(NS(=O)(=O)c3cccc4nonc34)c1)C1CC1)CCCCCC2 (centres unmarked) [Example 290, N-[3-[Cyclopropyl(5,6,7,8,9,10-hexahydro-4-hydroxy-2-oxo-2H-cycloocta[b]pyran-3-yl)methyl]phenyl]-4-benzofurazansulfonamide] | 0.0027 µM | 90.3 | 115 | 123 | 119 | 126 | 114 |  |  |  |  |  | 
Cc1nn(C)c(Cl)c1S(=O)(=O)Nc1cccc(C(c2c(O)c3c(oc2=O)CCCCCC3)C2CC2)c1 (centres unmarked) [Example 294, 5-Chloro-N-[3-[cyclopropyl(5,6,7,8,9,10-hexahydro-4-hydroxy-2-oxo-2H-cycloocta[b]pyran-3-yl)methyl]phenyl]-1,3-dimethyl-1H-pyrazole-4-sulfonamide] | 0.139 µM |  | 20.9 | 52.9 | 81.1 | 94.7 | 110 |  |  |  |  |  | 
